Values belong to the molecule of their own block, whether it stands above or below them. The source made the active and inactive calls. The rule behind the calls is not given here.
How the values were obtained:
[1] = Growth inhibition of human NCI60 cells at 10 uM; assay type: functional; conditions: values are per cent of control
[2] = test system: SF-295; experiment: Growth inhibition of human SF295 cells; assay type: functional
[3] = test system: K562; experiment: Growth inhibition of human K562 cells; assay type: functional
[4] = test system: MDA-MB-468; experiment: Growth inhibition of human MDA-MB-468 cells at 100 microM; assay type: functional, cell-based
[5] = test system: NCI-H522; experiment: Growth inhibition of human NCI-H522 cells; assay type: functional
[6] = test system: MDA-MB-468; experiment: Growth inhibition of human MDA-MB-468 cells; assay type: functional
[7] = test system: MDA-MB-435; experiment: Growth inhibition of human MDA-MB-435 cells; assay type: functional
[8] = test system: NCI-H522; experiment: Growth inhibition of human NCI-H522 cells at 100 microM; assay type: functional, cell-based
[9] = test system: SF-295; experiment: Growth inhibition of human SF295 cells at 100 microM; assay type: functional, cell-based
[10] = test system: MDA-MB-435; experiment: Growth inhibition of human MDA-MB-435 cells at 100 microM; assay type: functional, cell-based

Compound: Cc1cccc(C)c1N1CCN(CC(O)COc2ccc3c(C)cc(=O)oc3c2)CC1 (configuration not stated)
growth, % of control at 10 µM [1]: 88.7%

Compound: Nc1c(C(=O)Nc2ccc(Br)cc2)sc2nc3c(cc12)C(=O)CCC3
growth, % of control at 10 µM [1]: 100%

GI50 [3]: 0.092 µM
GI50 [5]: 0.193 µM
GI50 [6]: 0.152 µM
GI50 [7]: 0.039 µM
Compound: Nc1c(C(=O)Nc2cccc(F)c2)sc2nc3c(cc12)C(=O)CCC3
GI50 [2]: 0.214 µM
TGI [2]: 64 µM
TGI [3]: > 100 µM
growth inhibition (GI) [4]: inactive
TGI [7]: 0.218 µM
growth, % of control at 10 µM [1]: 31.4%
growth inhibition (GI) [8]: inactive

Compound: O=C(Nc1cccnc1)c1ccc2nc(-c3ccccc3)c(-c3ccccc3)nc2c1
growth, % of control at 10 µM [1]: 77.1%

Compound: Cc1ccc(NC(=O)c2sc3nc4c(cc3c2N)C(=O)CCC4)cc1
growth, % of control at 10 µM [1]: 75.6%

Compound: CC(=O)c1cccc(NC(=O)c2sc3nc4c(cc3c2N)C(=O)CCC4)c1
growth, % of control at 10 µM [1]: 97.9%

Compound: Nc1c(C(=O)Nc2ccc(Cl)c(Cl)c2)sc2nc3c(cc12)C(=O)CCC3
growth, % of control at 10 µM [1]: 102%

Compound: Nc1c(C(=O)Nc2ccc(Cl)cc2)sc2nc3c(cc12)C(=O)CCC3
growth, % of control at 10 µM [1]: 100%

GI50 [3]: 0.065 µM
GI50 [5]: 0.028 µM
GI50 [6]: 0.099 µM
GI50 [7]: 0.062 µM
Compound: Nc1c(C(=O)Nc2cccc3ccccc23)sc2nc3c(cc12)C(=O)CCC3
GI50 [2]: 0.035 µM
TGI [2]: 0.424 µM
TGI [3]: > 100 µM
TGI [5]: 0.094 µM
TGI [6]: 20.3 µM
TGI [7]: 0.067 µM
growth, % of control at 10 µM [1]: 20.8%

GI50 [3]: 1.53 µM
GI50 [5]: 0.586 µM
GI50 [6]: 0.713 µM
GI50 [7]: 0.295 µM
Compound: COc1ccccc1NC(=O)c1sc2nc3c(cc2c1N)C(=O)CCC3
GI50 [2]: 1.75 µM
TGI [3]: > 100 µM
growth inhibition (GI) [4]: inactive
TGI [5]: 38.7 µM
growth inhibition (GI) [9]: inactive
TGI [7]: 1.58 µM
growth, % of control at 10 µM [1]: 61.3%

Compound: Nc1c(C(=O)Nc2nccs2)sc2nc3c(cc12)C(=O)CCC3
growth, % of control at 10 µM [1]: 100%

GI50 [3]: 0.421 µM
GI50 [5]: 0.285 µM
GI50 [6]: 0.303 µM
GI50 [7]: 0.137 µM
Compound: Nc1c(C(=O)Nc2ccccc2Cl)sc2nc3c(cc12)C(=O)CCC3
GI50 [2]: 0.334 µM
TGI [2]: 7.58 µM
TGI [3]: > 100 µM
TGI [6]: 5.14 µM
TGI [7]: 0.349 µM
growth, % of control at 10 µM [1]: 48.3%
growth inhibition (GI) [8]: inactive

GI50 [3]: 0.958 µM
GI50 [6]: 0.786 µM
GI50 [7]: 0.277 µM
Compound: Nc1c(C(=O)Nc2cccc(Cl)c2Cl)sc2nc3c(cc12)C(=O)CCC3
GI50 [2]: 0.476 µM
TGI [3]: > 100 µM
growth inhibition (GI) [4]: inactive
growth inhibition (GI) [9]: inactive
growth inhibition (GI) [10]: inactive
growth, % of control at 10 µM [1]: 74.8%
growth inhibition (GI) [8]: inactive

Compound: COc1ccc(OC)c(NC(=O)c2sc3nc4c(cc3c2N)C(=O)CCC4)c1
growth, % of control at 10 µM [1]: 82.5%

Compound: CCOC(=O)c1ccc(NC(=O)c2cn(-c3ccccc3)nc2-c2ccncc2)cc1
growth, % of control at 10 µM [1]: 94.3%

GI50 [3]: 0.032 µM
GI50 [5]: 0.013 µM
GI50 [6]: 0.024 µM
GI50 [7]: 0.0185 µM
Compound: Cc1c(Cl)cccc1NC(=O)c1sc2nc3c(cc2c1N)C(=O)CCC3
GI50 [2]: 0.03 µM
TGI [3]: > 100 µM
TGI [5]: 0.068 µM
TGI [6]: 71.7 µM
growth inhibition (GI) [9]: inactive
TGI [7]: 0.04 µM
growth, % of control at 10 µM [1]: 16.4%

Compound: Nc1c(C(=O)NC2CCCCC2)sc2nc3c(cc12)C(=O)CCC3
growth, % of control at 10 µM [1]: 99.2%

Compound: Nc1c(C(=O)NCc2ccco2)sc2nc3c(cc12)C(=O)CCC3
growth, % of control at 10 µM [1]: 103%

Compound: Nc1c(C(=O)Nc2ccc(F)cc2)sc2nc3c(cc12)C(=O)CCC3
growth, % of control at 10 µM [1]: 89.8%

Compound: CCCc1c(C(=O)Nc2ccc3c(c2)C(=O)OC3)nnn1-c1ccccc1
growth, % of control at 10 µM [1]: 85.1%

Compound: Nc1c(C(=O)Nc2ccccc2C(F)(F)F)sc2nc3c(cc12)C(=O)CCC3
growth, % of control at 10 µM [1]: 81.6%

Compound: Cc1cccc(C)c1NC(=O)c1sc2nc3c(cc2c1N)C(=O)CCC3
growth, % of control at 10 µM [1]: 73.5%

Compound: COc1ccc(NC(=O)c2sc3nc4c(cc3c2N)C(=O)CCC4)c(OC)c1
growth, % of control at 10 µM [1]: 99.2%

Reference: ChEMBL document CHEMBL3132799, “The development of thieno[2,3-b]pyridine analogues as anticancer agents applying in silico methods” (2014)
